Columns and labels:
HL-60 = experiment: Antiproliferative activity against human HL-60 cells after 72 hrs by MTT assay; assay type: functional, cell-based; conditions: HL-60, 72 h
Bel-7402 = experiment: Antiproliferative activity against human Bel-7402 cells after 72 hrs by SRB assay; assay type: functional, cell-based; conditions: Bel-7402, 72 h

| Compound | IC50 (HL-60) | IC50 (Bel-7402) |
| --- | --- | --- |
| COc1cc2c3c(c4ccc(OC(=O)N(C)C)cc4c2cc1OC)CN1CCC[C@H]1C3 | > 10000 nM | > 10000 nM |
| COc1cc2c3c(c4ccc(OC(=O)N(C)C)cc4c2cc1OC)CN1CCC[C@@H]1C3 | 2830 nM | 8260 nM |
| COc1cc2c3c(c4ccc(OCCO)cc4c2cc1OC)CN1CCC[C@@H]1C3 | 81 nM | 98 nM |
| COc1cc2c3c(c4ccc(OC(=O)/C=C/C=C/c5ccc6c(c5)OCO6)cc4c2cc1OC)CN1CCC[C@@H]1C3 | 56 nM | 199 nM |
| COc1cc2c3c(c4ccc(OC(=O)c5cccc6nnsc56)cc4c2cc1OC)CN1CCC[C@@H]1C3 | 227 nM | 173 nM |
| COc1cc2c3c(c4ccc(OC(=O)c5cccnc5)cc4c2cc1OC)CN1CCC[C@@H]1C3 | 179 nM | 133 nM |
| COc1cc2c3c(c4ccc(OC(=O)c5ccccc5N)cc4c2cc1OC)CN1CCC[C@@H]1C3 | 25 nM | 83 nM |
| COc1cc2c3c(c4ccc(OC(=O)C5CC5)cc4c2cc1OC)CN1CCC[C@H]1C3 | 611 nM | 877 nM |
| COc1cc2c3c(c4ccc(OC(=O)c5cccs5)cc4c2cc1OC)CN1CCC[C@@H]1C3 | 472 nM | 83 nM |
| COc1cc2c3c(c4ccc(OC(C)=O)cc4c2cc1OC)CN1CCC[C@H]1C3 | 756 nM | 1110 nM |
| COc1cc2c3c(c4ccc(OC(=O)C(C)(C)C)cc4c2cc1OC)CN1CCC[C@@H]1C3 | 245 nM | 294 nM |
| COc1cc2c3c(c4ccc(OC(=O)c5ccccc5)cc4c2cc1OC)CN1CCC[C@@H]1C3 | 455 nM | 428 nM |
| COc1cc2c3c(c4ccc(OC(=O)c5ccco5)cc4c2cc1OC)CN1CCC[C@@H]1C3 | 178 nM | 504 nM |
| COc1cc2c3c(c4ccc(OCCOC(=O)[C@@H](N)Cc5ccccc5)cc4c2cc1OC)CN1CCC[C@H]1C3 | 600 nM | 2280 nM |
| COc1cc2c3c(c4ccc(OC(=O)C(C)C)cc4c2cc1OC)CN1CCC[C@H]1C3 | 683 nM | 1590 nM |
| COc1cc2c3c(c4ccc(OC(=O)C(C)(C)C)cc4c2cc1OC)CN1CCC[C@H]1C3 | 219 nM | 1540 nM |
| CCOC(=O)Oc1ccc2c3c(c4cc(OC)c(OC)cc4c2c1)C[C@@H]1CCCN1C3 | 379 nM | 2080 nM |
| COc1cc2c3c(c4ccc(OC(=O)C5CC5)cc4c2cc1OC)CN1CCC[C@@H]1C3 | 181 nM | 765 nM |
| COc1cc2c3c(c4ccc(O)cc4c2cc1OC)CN1CCC[C@@H]1C3 | 4 nM | 26 nM |

| Compound | IC50 (HL-60) | IC50 (Bel-7402) |
| --- | --- | --- |
| COc1cc2c3c(c4ccc(OCCOC(=O)[C@@H](N)CC(C)C)cc4c2cc1OC)CN1CCC[C@@H]1C3 | 580 nM | 1270 nM |
| COc1cc2c3c(c4ccc(OCCOC(=O)[C@H](C)N)cc4c2cc1OC)CN1CCC[C@@H]1C3 | 494 nM | 642 nM |
| COc1cc2c3c(c4ccc(OCCOC(=O)[C@H](C)N)cc4c2cc1OC)CN1CCC[C@H]1C3 | 1080 nM | 2830 nM |
| CC[C@H](C)[C@H](N)C(=O)OCCOc1ccc2c3c(c4cc(OC)c(OC)cc4c2c1)C[C@H]1CCCN1C3 | 505 nM | 584 nM |
| COc1cc2c3c(c4ccc(OC(=O)C(C)C)cc4c2cc1OC)CN1CCC[C@@H]1C3 | 106 nM | 60 nM |
| COc1cc2c3c(c4ccc(OCCOC(=O)[C@@H](N)C(C)C)cc4c2cc1OC)CN1CCC[C@H]1C3 | 7800 nM | > 10000 nM |
| COc1cc2c3c(c4ccc(OCC#N)cc4c2cc1OC)CN1CCC[C@H]1C3 | 301 nM | 200 nM |
| COc1cc2c3c(c4ccc(O)cc4c2cc1OC)CN1CCC[C@H]1C3 | 50 nM | 292 nM |
| COc1cc2c3c(c4ccc(OCCOC(=O)[C@@H]5CCCN5)cc4c2cc1OC)CN1CCC[C@@H]1C3 | 233 nM | 280 nM |
| COc1cc2c3c(c4ccc(OCCOC(=O)[C@@H](N)Cc5ccccc5)cc4c2cc1OC)CN1CCC[C@@H]1C3 | 568 nM | 669 nM |
| CCOC(=O)Oc1ccc2c3c(c4cc(OC)c(OC)cc4c2c1)C[C@H]1CCCN1C3 | 66 nM | 105 nM |
| COc1cc2c3c(c4ccc(OC(C)=O)cc4c2cc1OC)CN1CCC[C@@H]1C3 | 44 nM | 228 nM |
| COc1cc2c3c(c4ccc(OC(=O)c5ccccc5)cc4c2cc1OC)CN1CCC[C@H]1C3 | 800 nM | 1090 nM |
| COc1cc2c3c(c4ccc(OC(=O)c5cccnc5)cc4c2cc1OC)CN1CCC[C@H]1C3 | 762 nM | 1770 nM |
| COc1cc2c3c(c4ccc(OC(=O)C5CCCCC5)cc4c2cc1OC)CN1CCC[C@@H]1C3 | 674 nM | 235 nM |
| COc1cc2c3c(c4ccc(OCCOC(=O)[C@@H](N)Cc5c[nH]c6ccccc56)cc4c2cc1OC)CN1CCC[C@@H]1C3 | 112 nM | 248 nM |
| COc1cc2c3c(c4ccc(OC(=O)/C=C/c5ccc6c(c5)OCO6)cc4c2cc1OC)CN1CCC[C@@H]1C3 | 153 nM | 185 nM |
| COc1cc2c3c(c4ccc(OCCO)cc4c2cc1OC)CN1CCC[C@H]1C3 | 220 nM | 374 nM |
| COc1cc2c3c(c4ccc(OCCOC(=O)[C@@H](N)C(C)C)cc4c2cc1OC)CN1CCC[C@@H]1C3 | 908 nM | 974 nM |

Source: ChEMBL document CHEMBL4665661, “Design, synthesis, and biological activity evaluation of (-)-6-O-desmethylantofine analogues as potent anti-cancer agents” (Bioorg Med Chem, 2019)
